Laboratory results taken from ChEMBL document CHEMBL4229367, “Identification of multi-target inhibitors of leukotriene and prostaglandin E2 biosynthesis by structural tuning of the FLAP inhibitor BRP-7” (Eur J Med Chem, 2018).

Target: T1, Prostaglandin E synthase (Homo sapiens) (UniProt O14684)
T1 sequence (whole entry): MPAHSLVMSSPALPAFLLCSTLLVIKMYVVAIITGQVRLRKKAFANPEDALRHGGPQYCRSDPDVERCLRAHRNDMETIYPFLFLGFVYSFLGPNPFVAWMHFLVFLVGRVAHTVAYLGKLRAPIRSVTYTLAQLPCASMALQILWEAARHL
Assay: Inhibition of mPGES1 in IL-1beta-stimulated human A549 cell microsomal fractions assessed as reduction in PGE2 production at 3 uM preincubated for 15 mins followed by PGH2 substrate addition and measured after 1 min by RP-HPLC analysis relative to control

With `CC(C)Cc1ccc(C(C)c2nc3cc(-c4nnco4)ccc3n2Cc2ccccc2Cl)cc1` (stereo unspecified) the inhibition was less than 50%.

Target: T2, Arachidonate 5-lipoxygenase-activating protein (Homo sapiens) (UniProt P20292)
T2 sequence (whole entry): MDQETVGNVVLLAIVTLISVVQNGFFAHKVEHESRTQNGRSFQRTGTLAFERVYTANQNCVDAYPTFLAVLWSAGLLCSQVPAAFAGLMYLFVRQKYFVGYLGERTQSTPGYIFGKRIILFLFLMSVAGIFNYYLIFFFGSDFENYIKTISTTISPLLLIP
Assay: Inhibition of FLAP in A23187-stimulated human neutrophils assessed as remaining enzyme activity by measuring 5-LO product formation at 0.1 uM preincubated for 15 mins followed by A23187 and arachidonic acid addition and measured after 10 mins by UV based RP-HPLC analysis (reference value: 100%)

Point of comparison: `CC(C)CCc1ccc(C(C)c2nc3cc(C#N)ccc3n2Cc2ccccc2Cl)cc1` (stereo unspecified), Activity 118%. Against it:
- CC(C)Cc1ccc(C(C)c2nc3cc(C(N)=O)ccc3n2Cc2ccccc2Cl)cc1 (stereo unspecified) — lower, 64%
- N#Cc1ccc2c(c1)nc(CCc1ccc(-c3cnc(N)cn3)cc1)n2Cc1ccccc1Cl — lower, 72.7%
- N#Cc1ccc2c(c1)nc(NCc1ccc3cc[nH]c3c1)n2Cc1ccccc1Cl — lower, 93.6%
- CC(C)Cc1ccc(C(C)c2nc3cc(C(N)=S)ccc3n2Cc2ccccc2Cl)cc1 (stereo unspecified) — lower, 63.1%
- CC(C)Cc1ccc(C(C)c2nc3c(C(=O)O)cccc3n2Cc2ccccc2Cl)cc1 (stereo unspecified) — lower, 85%
- CC(C)Cc1ccc(C(C)c2nc3cc(-c4n[nH]c(=O)o4)ccc3n2Cc2ccccc2Cl)cc1 (stereo unspecified) — lower, 40.5%
- CC(C)Cc1ccc(-c2nc3cc(C#N)ccc3n2Cc2ccccc2Cl)cc1 — lower, 93%
- Cc1nc(-c2ccc3c(c2)nc(C(C)c2ccc(CC(C)C)cc2)n3Cc2ccccc2Cl)no1 (stereo unspecified) — lower, 79%
- CC(c1ccc(CC(C)(C)C)cc1)c1nc2cc(C#N)ccc2n1Cc1ccccc1Cl (stereo unspecified) — lower, 117%
- N#Cc1ccc2c(c1)nc(CCc1ccc(-c3ccc(N)nn3)cc1)n2Cc1ccccc1Cl — lower, 85.6%
- N#Cc1ccc2c(c1)nc(NCCc1c[nH]c3ccccc13)n2Cc1ccccc1Cl — lower, 97.1%
- N#Cc1ccc2c(c1)nc(NCc1ccc3[nH]ccc3c1)n2Cc1ccccc1Cl — lower, 92.3%
- CC(C)Oc1ccc(-c2nc3cc(C#N)ccc3n2Cc2ccccc2Cl)cc1 — lower, 93.7%
- CCC(C)c1ccc(C(C)c2nc3cc(C#N)ccc3n2Cc2ccccc2Cl)cc1 (stereo unspecified) — lower, 92.1%
- CC(C)Cc1ccc(C(C)c2nc3cc(-c4nnco4)ccc3n2Cc2ccccc2Cl)cc1 (stereo unspecified) — lower, 63.1%
- N#Cc1ccc2c(c1)nc(CCc1ccc(-c3ccc(N)nc3)cc1)n2Cc1ccccc1Cl — lower, 76.1%

Target: T2, Arachidonate 5-lipoxygenase-activating protein (Homo sapiens)
Assay: Inhibition of FLAP in A23187-stimulated human neutrophils assessed as remaining enzyme activity by measuring 5-LO product formation at 10 uM preincubated for 15 mins followed by A23187 and arachidonic acid addition and measured after 10 mins by UV based RP-HPLC analysis (reference value: 100%)

Point of comparison: `N#Cc1ccc2c(c1)nc(NCc1ccc3cc[nH]c3c1)n2Cc1ccccc1Cl`, Activity 84%. Against it:
- CC(C)CCc1ccc(C(C)c2nc3cc(C#N)ccc3n2Cc2ccccc2Cl)cc1 (stereo unspecified) — lower, 66%
- N#Cc1ccc2c(c1)nc(NCCc1c[nH]c3ccccc13)n2Cc1ccccc1Cl — lower, 63%
- N#Cc1ccc2c(c1)nc(NCc1ccc3[nH]ccc3c1)n2Cc1ccccc1Cl — lower, 44%

Target: T3, Polyunsaturated fatty acid 5-lipoxygenase (Homo sapiens, UniProt P09917)
T3 sequence (P09917 whole entry): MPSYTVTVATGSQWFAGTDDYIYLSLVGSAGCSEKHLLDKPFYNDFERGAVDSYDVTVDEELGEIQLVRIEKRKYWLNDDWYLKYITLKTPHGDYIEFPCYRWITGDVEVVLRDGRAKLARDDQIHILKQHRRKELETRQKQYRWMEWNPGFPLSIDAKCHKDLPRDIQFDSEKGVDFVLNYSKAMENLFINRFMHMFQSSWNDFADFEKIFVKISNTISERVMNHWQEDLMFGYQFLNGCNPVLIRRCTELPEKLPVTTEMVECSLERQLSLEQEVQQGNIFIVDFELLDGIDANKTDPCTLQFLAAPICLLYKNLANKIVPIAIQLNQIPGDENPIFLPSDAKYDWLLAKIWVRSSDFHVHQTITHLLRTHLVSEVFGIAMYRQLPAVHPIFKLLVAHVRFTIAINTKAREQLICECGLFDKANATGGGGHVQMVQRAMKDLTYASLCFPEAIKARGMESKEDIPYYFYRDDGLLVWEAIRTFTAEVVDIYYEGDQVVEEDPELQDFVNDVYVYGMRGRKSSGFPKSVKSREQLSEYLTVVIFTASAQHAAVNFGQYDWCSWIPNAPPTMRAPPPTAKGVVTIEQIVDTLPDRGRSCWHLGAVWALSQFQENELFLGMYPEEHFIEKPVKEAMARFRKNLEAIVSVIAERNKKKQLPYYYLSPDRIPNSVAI
Assay: Inhibition of recombinant human 5-LO expressed in Escherichia coli BL21 incubated for 15 mins prior to prewarming for 30 secs followed by CaCl2+ and arachidonic acid addition and measured after 10 mins by RP-HPLC analysis

With `CC(C)c1ccc2c(c1)c(SC(C)(C)C)c(CC(C)(C)C(=O)O)n2Cc1ccc(Cl)cc1` the IC50 was 3000 nM.

Target: T2, Arachidonate 5-lipoxygenase-activating protein (Homo sapiens)
Assay: Inhibition of FLAP in A23187-stimulated human neutrophils assessed as remaining enzyme activity by measuring 5-LO product formation at 1 uM preincubated for 15 mins followed by A23187 and arachidonic acid addition and measured after 10 mins by UV based RP-HPLC analysis (reference value: 100%)

Point of comparison: `N#Cc1ccc2c(c1)nc(NCCc1c[nH]c3ccccc13)n2Cc1ccccc1Cl`, Activity 99.2%. Against it:
- CC(C)Cc1ccc(C(C)c2nc3cc(C(N)=O)ccc3n2Cc2ccccc2Cl)cc1 (stereo unspecified) — lower, 0%
- N#Cc1ccc2c(c1)nc(CCc1ccc(-c3cnc(N)cn3)cc1)n2Cc1ccccc1Cl — lower, 3.5%
- N#Cc1ccc2c(c1)nc(NCc1ccc3cc[nH]c3c1)n2Cc1ccccc1Cl — lower, 98.5%
- CC(C)Cc1ccc(C(C)c2nc3cc(C(N)=S)ccc3n2Cc2ccccc2Cl)cc1 (stereo unspecified) — lower, 0.45%
- CC(C)Cc1ccc(C(C)c2nc3c(C(=O)O)cccc3n2Cc2ccccc2Cl)cc1 (stereo unspecified) — lower, 85%
- CC(C)Cc1ccc(C(C)c2nc3cc(-c4n[nH]c(=O)o4)ccc3n2Cc2ccccc2Cl)cc1 (stereo unspecified) — lower, 0.5%
- CC(C)Cc1ccc(-c2nc3cc(C#N)ccc3n2Cc2ccccc2Cl)cc1 — lower, 74.3%
- Cc1nc(-c2ccc3c(c2)nc(C(C)c2ccc(CC(C)C)cc2)n3Cc2ccccc2Cl)no1 (stereo unspecified) — lower, 1.9%
- CC(C)CCc1ccc(C(C)c2nc3cc(C#N)ccc3n2Cc2ccccc2Cl)cc1 (stereo unspecified) — lower, 87.2%
- CC(c1ccc(CC(C)(C)C)cc1)c1nc2cc(C#N)ccc2n1Cc1ccccc1Cl (stereo unspecified) — lower, 51.5%
- N#Cc1ccc2c(c1)nc(CCc1ccc(-c3ccc(N)nn3)cc1)n2Cc1ccccc1Cl — lower, 25.6%
- N#Cc1ccc2c(c1)nc(NCc1ccc3[nH]ccc3c1)n2Cc1ccccc1Cl — lower, 84.7%
- CC(C)Oc1ccc(-c2nc3cc(C#N)ccc3n2Cc2ccccc2Cl)cc1 — lower, 68.4%
- CCC(C)c1ccc(C(C)c2nc3cc(C#N)ccc3n2Cc2ccccc2Cl)cc1 (stereo unspecified) — lower, 33.6%
- CC(C)Cc1ccc(C(C)c2nc3cc(-c4nnco4)ccc3n2Cc2ccccc2Cl)cc1 (stereo unspecified) — lower, 0.45%
- N#Cc1ccc2c(c1)nc(CCc1ccc(-c3ccc(N)nc3)cc1)n2Cc1ccccc1Cl — lower, 1.4%

Target: T4, Arachidonate 5-lipoxygenase-activating protein (Homo sapiens, UniProt P20292)
T4 sequence (P20292 whole entry): T2 sequence (whole entry)
Assay: Inhibition of FLAP in A23187-stimulated human neutrophils assessed as reduction in 5-LO product formation preincubated for 15 mins followed by A23187 and arachidonic acid addition and measured after 10 mins by UV based RP-HPLC analysis

Point of comparison: `CC(C)Cc1ccc(C(C)c2nc3c(C(=O)O)cccc3n2Cc2ccccc2Cl)cc1` (stereo unspecified), IC50 400 nM. Against it:
- CC(C)Cc1ccc(C(C)c2nc3cc(C(N)=O)ccc3n2Cc2ccccc2Cl)cc1 (stereo unspecified) — 3.1-fold lower, 130 nM
- N#Cc1ccc2c(c1)nc(CCc1ccc(-c3cnc(N)cn3)cc1)n2Cc1ccccc1Cl — 1.5-fold lower, 260 nM
- C=C(Cc1ccc(-c2cnc(N)nc2)cc1)c1nc2cc(C#N)ccc2n1Cc1ccccc1Cl — within 1.5-fold, 370 nM
- N#Cc1ccc2c(c1)nc(NCc1ccc3cc[nH]c3c1)n2Cc1ccccc1Cl — higher, > 10000 nM
- CC(C)Cc1ccc(C(C)c2nc3cc(C(N)=S)ccc3n2Cc2ccccc2Cl)cc1 (stereo unspecified) — 2.5-fold lower, 160 nM
- CC(C)Cc1ccc(C(C)c2nc3cc(-c4n[nH]c(=O)o4)ccc3n2Cc2ccccc2Cl)cc1 (stereo unspecified) — 4-fold lower, 100 nM
- Cc1nc(-c2ccc3c(c2)nc(C(C)c2ccc(CC(C)C)cc2)n3Cc2ccccc2Cl)no1 (stereo unspecified) — 2.2-fold lower, 180 nM
- CC(C)CCc1ccc(C(C)c2nc3cc(C#N)ccc3n2Cc2ccccc2Cl)cc1 (stereo unspecified) — 45-fold higher, 18000 nM
- CC(c1ccc(CC(C)(C)C)cc1)c1nc2cc(C#N)ccc2n1Cc1ccccc1Cl (stereo unspecified) — 4.2-fold higher, 1700 nM
- N#Cc1ccc2c(c1)nc(CCc1ccc(-c3ccc(N)nn3)cc1)n2Cc1ccccc1Cl — 1.6-fold higher, 660 nM
- N#Cc1ccc2c(c1)nc(NCCc1c[nH]c3ccccc13)n2Cc1ccccc1Cl — 22-fold higher, 8800 nM
- N#Cc1ccc2c(c1)nc(NCc1ccc3[nH]ccc3c1)n2Cc1ccccc1Cl — 9.5-fold higher, 3800 nM
- CCC(C)c1ccc(C(C)c2nc3cc(C#N)ccc3n2Cc2ccccc2Cl)cc1 (stereo unspecified) — 1.8-fold higher, 700 nM
- CC(C)Cc1ccc(C(C)c2nc3cc(-c4nnco4)ccc3n2Cc2ccccc2Cl)cc1 (stereo unspecified) — 4.4-fold lower, 90 nM
- N#Cc1ccc2c(c1)nc(CCc1ccc(-c3ccc(N)nc3)cc1)n2Cc1ccccc1Cl — 1.6-fold lower, 250 nM
